{"source": "patent US20050124591A1", "about": "“Use of vitamin Ds to treat kidney disease” (priority 2003, published 2005)", "key": {"[1]": {"test_system": "renin gene expression", "conditions": "in vitro and in vivo studies, recently found; cited from earlier work"}, "[2]": {"test_system": "PAI-1", "assay": "Western blot of PAI-1 in primary culture of human coronary artery smooth muscle cells", "assay_type": "cell-based", "conditions": "24 hr at 37° C."}, "[3]": {"test_system": "renin gene promoter", "assay": "renin promoter-luciferase reporter assay", "assay_type": "cell-based", "conditions": "FIG. 2", "text": "(§1) Using an in vitro cell culture system, the activity of paricalcitol to suppress renin gene expression was examined using previously published techniques (1,25-Dihydroxyvitamin D3 is a negative endocrine regulator of the renin-angiotensin system, J. Clin. Invest., July 2002). […] This inhibitory effect is confirmed by renin promoter-luciferase reporter assays, which examine the activity of paricalcitol to suppress renin gene transcription."}, "[4]": {"test_system": "renin mRNA expression", "assay": "Northern blot analysis of renin mRNA expression in As4.1-hVDR cells", "assay_type": "cell-based", "text": "as §1"}, "[5]": {"test_system": "24(OH)ase", "assay": "effect of drugs on the expression of 24(OH)ase", "assay_type": "cell-based", "conditions": "compared with calcitriol", "description": "Two observations may be noted in these studies: (1) 100% inhibition of growth was never achieved even at 1 μM of any of the test compound. Confocal microscopy studies confirm that, although these drugs are potent in inducing the translocation of VDR from cytoplasm to nucleus, not all cells respond to VDRAs even after 2 h of exposure, which may explain the <100% inhibition."}, "[6]": {"test_system": "CKD Stage 3 and 4 patients", "assay": "dipstick proteinuria in three randomized, double-blind, placebo-controlled studies in CKD Stage 3 and 4 patients with SHPT", "assay_type": "in vivo, human", "description": "Paricalcitol capsule, a synthetic 3rd generation vitamin D analog, and selective vitamin receptor activator (SVDRA) was evaluated in three randomized, double-blind, placebo-controlled, multicenter studies in CKD Stage 3 and 4 patients with SHPT. Two studies dosed three times a week(TIW), no more often than every other day, and 1 study was conducted with once a day dosing regimen (QD). Data from these three studies were combined and analyzed for the following safety parameters: • Calcium and phosphorus metabolism, kidney function parameters and adverse event profile • Changes in dipstick proteinuria Method: • Randomized, double-blind, placebo controlled, multicenter studies with a Pre-treatment/Washout Phase of 1-4 weeks and a Treatment Phase of 24 weeks • Patients were randomized 1:1 to paricalcitol or placebo • Major entry criteria: • Age≧18 years • CKD patients with eGFR (MDRD formula) 15-60 mL/min/1.73 m^2 • Average of the last 2 iPTH values≧150 pg/mL, all values≧120 pg/mL (iPTH measured by Nichols first generation intact PTH assay) • 2 consecutive serum calcium values between 8.0-10.0 mg/dL, and 2 consecutive serum phosphorus values≦5.2 mg/dL • Spot urinary calcium-to-creatinine ratio<0.2 • Not taking maintenance calcitonin, bisphosphonates or drugs that may affect calcium or bone metabolism. • Not taking glucocorticoids for >14 days within the last 6 months. Concurrent Phosphate Binder Usage\nInitial Dose: 2 or 4 mcg for TIW regimen and 1 or 2 mcg for QD regimen\nDose Increment: 2 mcg for TIW regimen and 1 mcg for QD regimen\nDose increases every 4 weeks, dose decreases every 2 weeks or sooner\nChanges in proteinuria, measured by automated semiquantitative dipstick testing, were evaluated in 195 CKD Stage 3 and 4 patients. Among them, 43.6% (41/94) of paricalcitol patients and 48.5% (49/101) of placebo patients were diabetic."}}, "data": [{"smiles": "C=C1/C(=C\\C=C2/CCC[C@]3(C)[C@@H]([C@H](C)CCCC(C)(C)O)CC[C@@H]23)C[C@@H](O)C[C@@H]1O", "note": "[calcitriol]", "values": [{"measurement": "renin gene expression", "setting": "[1]", "result": "able to inhibit renin gene expression"}, {"measurement": "potency in reducing the PAI-1 level", "setting": "[2]", "result": "equally potent"}]}, {"smiles": "C[C@H](/C=C/[C@H](C)C(C)(C)O)[C@H]1CC[C@H]2/C(=C/C=C3C[C@@H](O)C[C@H](O)C3)CCC[C@]12C", "note": "[paricalcitol]", "values": [{"measurement": "suppression of the activity of the renin gene promoter compared with calcitriol", "setting": "[3]", "result": "at least as potent as calcitriol"}, {"measurement": "renin mRNA expression", "setting": "[4]; FIG. 1", "result": "dose-dependently inhibits renin mRNA expression"}, {"measurement": "renin-inhibiting activity compared with calcitriol", "setting": "[4]; FIGS. 1A and B", "result": "a bit more potent than calcitriol"}, {"measurement": "potency on stimulating the expression of 24(OH)ase", "setting": "[5]", "result": "less potent than calcitriol"}, {"measurement": "PAI-1 level", "setting": "[2]", "result": "able to decrease PAI-1 level"}, {"measurement": "potency in reducing the PAI-1 level", "setting": "[2]", "result": "equally potent"}, {"measurement": "patients who had a decrease in proteinuria", "setting": "[6]; patients on ACEI/ARB therapy with proteinuria at baseline (22/42), placebo 27% (11/41), p=0.025", "result": 52, "unit": "%"}, {"measurement": "patients who experienced an increase in proteinuria, baseline to final visit", "setting": "[6]; patients who could have an increase in proteinuria from baseline (18/76), placebo 29% (23/77), p=0.466", "result": 24, "unit": "%"}, {"measurement": "patients who experienced a reduction in proteinuria, baseline to final visit", "setting": "[6]; patients who had proteinuria at baseline (29/57), placebo 25% (15/61), p=0.004, 24 weeks treatment", "result": 51, "unit": "%"}]}]}
